Experimental data taken from US11304943B2, “Combination for use in the treatment of lung cancer” (LDN Pharma Limited, priority 2017, dated 2022).

Tests used:
[1] = tested on: HCT116 (colorectal cancer) cells; assay: Cell counting with trypan blue (cell number / cytostasis and cell viability) in HCT116 cells; format: cell-based; conditions: 48 hours
A549 (lung cancer) cells = assay: Cell counting with trypan blue (cell number / cytostasis and cell viability) in A549 cells; format: cell-based
Method: The cytostatic effect upon administration of 6-β-naltrexol (6BN) and naltrexone (NTX) to A549 (lung cancer) and HCT116 (colorectal cancer) cells was studied in vitro. Firstly, A549 and HCT116 cells were seeded into 6-well plates at a density of 2×10^5/well and left to adhere overnight. Cells were then cultured with 0.001 μM, 0.01 μM, 0.1 μM or 1 μM of 6BN or NTX for 48 hours. Experiments were performed alongside a control where cells were not administered with 6-β-naltrexol or naltrexone (FIG. 1).
The viability of cells was then measured by cell counting using trypan blue as a way of discriminating live and dead cells. Cytostasis was indicated by a reduction in cell number and no associated reduction in cell viability.
Next, the effect of co-administration of low dose (10 nM) or high dose (10 μM) 6-β-naltrexol or naltrexone (NTX) alongside calcitriol was investigated. The cytostatic and cytotoxic effect was investigated in both A549 and HCT116 cells. A549 and HCT116 cells were seeded into 6-well plates at a density of 2×10^5/well and left to adhere overnight. The following day low or high dose 6BN or NTX was added to cells in isolation or in combination with calcitriol and incubated for 48 hours. A549 cells were co-administered with 10 nM calcitriol, whereas HCCT116 cells were co-administered 10 nM calcitriol.
Cell viability and cytostasis were then determined as described in example 1.

O=C1CC[C@@]2(O)[C@H]3Cc4ccc(O)c5c4[C@@]2(CCN3CC2CC2)[C@H]1O5 [NTX, naltrexone, reference compound]
cell viability upon combination with calcitriol ([1]; HCT116 cells, 10 nM NTX with 100 nM calcitriol): reduces the viability

C=C1/C(=C\C=C2/CCC[C@]3(C)[C@@H]([C@H](C)CCCC(C)(C)O)CC[C@@H]23)C[C@@H](O)C[C@@H]1O [Calcitriol, calcitriol, reference compound]
cytostatic effect of calcitriol in isolation (A549 (lung cancer) cells; lung cancer cells, calcitriol administered in isolation): no independent cytostatic effect

Oc1ccc2c3c1OC1[C@H](O)CC[C@@]4(O)[C@@H](C2)N(CC2CC2)CC[C@]314 (stereo partly drawn) [6-β-naltrexol, 17-(Cyclopropylmethyl)-4,5-epoxymorphinan-3,6beta,14-triol]
cytostasis (cell number) upon co-administration with calcitriol (A549 (lung cancer) cells; A549 cells, 10 nM 6BN co-administered with calcitriol, 48 hours): significant reduction in cytostasis | cytostasis (cell number) upon co-administration with calcitriol (A549 (lung cancer) cells; A549 cells, 10 μM 6BN co-administered with calcitriol, 48 hours): not observed | cell viability (A549 (lung cancer) cells; A549 cells, 0.001-1 μM, 48 hours, trypan blue): No reduction in cell viability | cytostasis (cell number) (A549 (lung cancer) cells; A549 lung cancer cells, 0.001-1 μM, 48 hours, single agent): selective reduction in cytotostasis in lung cancer cells | cytostasis (cell number) upon co-administration with calcitriol ([1]; HCT116 cells, 10 nM 6BN co-administered with calcitriol): not observed | cell viability ([1]; HCT116 cells, 0.001-1 μM, trypan blue): No reduction in cell viability | cytostasis (cell number) ([1]; HCT116 colorectal cancer cells, 0.001-1 μM, single agent, effect at higher concentrations): less pronounced decrease in cytotostasis
